# Assay results taken from PubChem BioAssay AID463204 (Broad Institute, 2010).
# Active and inactive are the calls of the source.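 The calls were made as follows: active = AC50 no more than ten times the top concentration tested, that is within one log above it; inconclusive = flat curve fit with activity between 30% and 70%, or invalid poor fit; inactive = AC50 beyond ten times the top tested dose.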
# Tested on: S. cerevisiae Mot1-301 ts growth rescue, BacTiter-Glo ATP luminescence
# Assay: growth rescue of Mot1-301 ts yeast, confirmation, SUMOylation pathway inhibitor project, whole organism, S. cerevisiae, Mot1-301 ts mutant, luminescence, dose retest (AID 463204);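 also: growth at restrictive 38.5 degrees C of Mot1-301 OY566 strain; actives raise luminescence by restoring growth of the ts mutant at high temperature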
row,SMILES,AC50
1,CCOc1cc(/C=C2\NC(=O)NC2=O)ccc1OC(C)C(=O)O (stereo unspecified),> 42 µM (inactive)
2,C/C(=N\NC(=O)c1cccc(N/N=C(\C)c2ccc([N+](=O)[O-])cc2)c1)c1ccc([N+](=O)[O-])cc1,> 42 µM (inactive)
3,O=C(c1ccc([N+](=O)[O-])o1)N1CCN(c2nc3c(Cl)cccc3s2)CC1,6.55 µM
4,CC1(C)c2[nH]c3ccccc3c2C[C@H]2C(=O)N(Cc3cccc(F)c3)C(=O)N21,> 42 µM (inactive)
5,OC[C@@H](O)CCl,> 42 µM (inactive)
6,CC1CCCN(C(=O)Cc2ccc(F)cc2)C1 (stereo unspecified),> 42 µM (inactive)
7,Cc1cccc(N2C(=O)CSC2c2cccnc2)c1 (stereo unspecified),> 42 µM (inactive)
8,O=C(Nc1ccc2ccccc2c1)N1CCCN(CCOc2ccccc2)CC1,> 42 µM (inactive)
9,C/C(=N\N=C(/N)SC1CC(=O)N(c2cccc(Cl)c2)C1=O)c1cccs1 (stereo unspecified),> 42 µM (inactive)
10,CC(C)(C)NC(=O)C1Cc2ccccc2CN1S(=O)(=O)c1ccc(F)cc1 (stereo unspecified),> 42 µM (inactive)
11,CC(=O)c1ccc(NC(=O)CSc2nnc(-c3ccco3)o2)cc1,> 42 µM (inactive)
12,COc1ccc(-c2cn(-c3ccc(C)cc3)c(=O)n2CC(=O)Nc2ccc(OC)c(OC)c2)cc1,> 42 µM (inactive)
13,CCOC(=O)c1oc2c(c1C)C(=O)CCC2,> 42 µM (inactive)
14,N=c1n(CCCOc2ccc(Br)cc2)c2ccccc2n1CC(N)=O,> 42 µM (inactive)
15,CN1C(=O)C(=Cc2ccc(N3CCCCC3)o2)C(=O)N(C)C1=S,> 42 µM (inactive)
16,CCNC(=S)Nc1ccc(C)c(S(=O)(=O)Nc2ccccc2OC)c1,> 42 µM (inactive)
17,CCN1C(=NCCCCO)N[C@@H](c2cccc(C(F)(F)F)c2)C(C(=O)OC)=C1C,> 42 µM (inactive)
18,O=C1c2ccccc2S(=O)(=O)N1Cc1cc(=O)n2ccsc2n1,> 42 µM (inactive)
19,C#CCn1c(=NC(=O)CN2C(=O)CCC2=O)sc2cccc(OC)c21,> 42 µM (inactive)
20,O=S1(=O)NC(c2ccccc2)CC(CC2CCCCC2)O1 (stereo unspecified),38.7 µM
21,S=c1[nH]nc(-c2ccccn2)n1/N=C/c1ccccc1,> 42 µM (inactive)
22,OCCN1CN=C(Nc2nc3ccccc3o2)NC1,> 42 µM (inactive)
23,CCCCc1n[nH]c(=S)n1Cc1ccc(C)cc1,> 42 µM (inactive)
24,O=C(COc1ccccc1Cl)c1ccc[nH]1,> 42 µM (inactive)
25,CC(=O)Oc1cccc(N2C(=O)c3ccc(C(=O)Nc4c[nH]c(=O)[nH]c4=O)cc3C2=O)c1,> 42 µM (inactive)
26,CC(C)CN(C(=O)COC(=O)c1ccc2c(c1)OCO2)c1c(N)n(Cc2ccccc2)c(=O)[nH]c1=O,> 42 µM (inactive)

row,SMILES,AC50
1,NS(=O)(=O)c1cccc(NC(=O)CSc2nnnn2-c2ccccc2)c1,> 42 µM (inactive)
2,CCOC(=O)c1ccccc1NC(=O)C1CC(=O)N(C2CCCCC2)C1 (stereo unspecified),> 42 µM (inactive)
3,CCOC(=O)N1CCC(NS(=O)(=O)c2ccc(C)c(Cl)c2)CC1,> 42 µM (inactive)
4,CCN(CC)CCNC(=O)CCn1c(=S)[nH]c2cc3c(cc2c1=O)OCO3,> 110 µM (inactive)
5,O=C1NC(c2ccccc2)C(C(=O)c2cccs2)C(O)(C(F)(F)F)N1 (stereo unspecified),> 42 µM (inactive)
6,CC1CCC(C(C)C)C(OC(=O)COC(=O)c2cccn2C)C1 (stereo unspecified),> 42 µM (inactive)
7,CCC(C)(C)NC(=O)C(c1ccc(C)cc1)N(CC1CCCO1)C(=O)CNC(=O)c1cccs1 (stereo unspecified),> 42 µM (inactive)
8,Fc1cccc(F)c1-c1nc(-c2ccncc2)no1,> 42 µM (inactive)
9,COc1ccccc1N1CCN(C(=O)c2ccc(N3CCCCS3(=O)=O)cc2)CC1,> 42 µM (inactive)
10,COc1ccc(CCC(=O)NNC(=S)Nc2cccc(C(C)=O)c2)cc1,> 42 µM (inactive)
11,CCOc1ccc(-c2c(C(=O)N/N=C/c3ccncc3)nnn2-c2nonc2N)cc1,> 42 µM (inactive)
12,Cc1cc(C(F)(F)F)c(C#N)c(=O)[nH]1,> 42 µM (inactive)
13,CCOc1ccc(Cl)cc1S(=O)(=O)N1CCC(C(=O)NCc2cccnc2)CC1,> 42 µM (inactive)
14,CN(CC(=O)N1CCc2[nH]c3ccc(F)cc3c2C1)CC1OCCO1,> 42 µM (inactive)
15,CC(=O)N(C(C)=O)c1c(C#N)c(C)n(-c2ccccc2)c1C(=O)c1ccccc1,20.4 µM
16,COCCCN1C(=O)c2ccc(C(=O)Nc3ccc(OC)cc3OC)cc2C1=O,> 42 µM (inactive)
17,O=C1CCC(/C=C/c2ccccc2)=NN1Cc1ccc(Cl)c(Cl)c1,> 42 µM (inactive)
18,CN(C)CCNC(=O)c1c(O)c2c([nH]c1=O)CCCC2,> 42 µM (inactive)
19,COc1cc(NC(=S)N2CCN(C(=O)C3CCCO3)CC2)c(OC)cc1Cl (stereo unspecified),> 42 µM (inactive)
20,O=C(CN1CCc2ccccc21)NN1CC(=O)N(c2ccc(Cl)cc2)CC1=O,> 42 µM (inactive)
21,COc1ccc(CN(CC(=O)NCc2ccco2)C(=O)CCC(=O)Nc2nccs2)cc1,> 42 µM (inactive)
22,COc1cccc(NC(=O)CNC(=O)c2ccc(C)cc2)c1,> 42 µM (inactive)
23,Cn1c(=NC(=O)COc2ccccc2)sc2cc(F)cc(F)c21,> 42 µM (inactive)
24,Cc1nn(C)cc1S(=O)(=O)Nc1ncccn1,> 42 µM (inactive)
25,Cc1c(Cl)c([N+](=O)[O-])nn1CC(=O)NC12CC3CC(CC(C3)C1)C2,> 42 µM (inactive)
26,CC1=CC(=O)C(C(C)C)=C/C1=N/OS(=O)(=O)c1ccccc1,0.92 µM

row,SMILES,AC50
1,Cc1c(O)ccc(C(=O)CN2C(=O)c3ccccc3C2=O)c1O,> 42 µM (inactive)
2,NC(=O)c1cc(S(=O)(=O)N2CCCC2)ccc1OCc1ccc(F)cc1,> 42 µM (inactive)
3,COc1ccc2[nH]cc(CCNS(=O)(=O)c3ccc(C)cc3)c2c1,> 42 µM (inactive)
4,O=C(CSc1nccc(=O)[nH]1)c1cc2ccccc2o1,> 42 µM (inactive)
5,COc1ccc(C(C)=O)cc1CN(c1ccccc1OC)S(=O)(=O)c1cccs1,> 42 µM (inactive)
6,CCNCc1nc2cc(Cl)ccc2c(=O)[nH]1,> 42 µM (inactive)
7,Cc1c(=O)n(OCc2ccccn2)c2ccccc2[n+]1[O-],> 42 µM (inactive)
8,O=c1[nH]c(=O)n(C2CCCO2)cc1Br (stereo unspecified),> 42 µM (inactive)
9,Cc1cc(N2CCN(C)CC2)nc2ccc(NC(=S)N3CCC4(CC3)OCCO4)cc12,> 42 µM (inactive)
10,COc1ccc(OCC(O)CN2C(=O)NC(C)(C)C2=O)cc1 (stereo unspecified),> 42 µM (inactive)
11,CCOC(=O)C1(Cc2cccc(OC)c2)CCCN(S(=O)(=O)c2cccnc2)C1 (stereo unspecified),> 42 µM (inactive)
12,C=C(Cl)COC(=O)C1C2C=CC(C2)C1C(=O)O (stereo unspecified),> 42 µM (inactive)
13,Cc1[nH]oc(=O)c1N=Nc1ccccc1,30.6 µM
14,O=C(NCc1cccc(F)c1F)C1CCC(=O)N(C2CC2)C1 (stereo unspecified),> 42 µM (inactive)
15,CCn1c(-c2ccccc2)c(C(=O)CC#N)c2ccccc21,> 42 µM (inactive)
16,CCNC(=O)NC1c2ccccc2CSc2ccccc21 (stereo unspecified),> 42 µM (inactive)
17,COc1ccc(-c2oc3ccc(-c4cc(OC)c(OC)c(OC)c4)cc3c2C(=O)c2ccc(OC)nc2)cc1,> 42 µM (inactive)
18,Cc1ccc(O)c(C)c1,> 42 µM (inactive)
19,CC(=Nc1ccccc1)C1=C(O)CC(C)(C)CC1=O,> 42 µM (inactive)
20,O=[N+]([O-])c1ccc(-c2csc(N3CCc4ccccc4C3)n2)cc1,> 42 µM (inactive)
21,COc1ccc(C2=Nn3c(nnc3-c3ccco3)SC2)cc1,> 42 µM (inactive)
22,Cc1nnc(SCC(=O)NC(C)(C)C)n1NCc1ccc(Cl)cc1,> 42 µM (inactive)
23,COc1ccc(OC)c2c(N)c(C#N)c(C(F)(F)C(F)(F)F)nc12,> 42 µM (inactive)
24,CCC(c1nnnn1C1CCCC1)N1CCN(c2cccc(OC)c2)CC1 (stereo unspecified),> 21 µM (inactive)
25,CCC1(c2ccccc2)NC(=O)N(CC(=O)N(C)CC(=O)Nc2ccc(F)c(F)c2F)C1=O (stereo unspecified),> 42 µM (inactive)
26,O=C(OCCCN=C1NS(=O)(=O)c2ccccc21)c1cccs1,> 42 µM (inactive)

row,SMILES,AC50
1,O=C(OCc1nc2ccsc2c(=O)[nH]1)c1ccco1,> 42 µM (inactive)
2,CCCCN(C/C=C/c1ccccc1OC)Cc1ccccc1,> 42 µM (inactive)
3,Cn1c(SCC(=O)Nc2nnc(-c3ccccc3)o2)nnc1C1CC1,> 42 µM (inactive)
4,CCN1C(=O)N(C)[C@@H](c2ccccc2)C(C(=O)OC)=C1C,> 42 µM (inactive)
5,COc1cc(C(=O)NCCC2=CCCCC2)ccc1OC1CCN(C(C)=O)CC1,> 42 µM (inactive)
6,CSc1nsc(SCC(=O)Nc2cccc(C(=O)O)c2)n1,> 42 µM (inactive)
7,CCc1ccc(NC(=S)N(Cc2cccc(Br)c2)CC2CCC(C(=O)O)CC2)cc1 (stereo unspecified),> 42 µM (inactive)
8,Cc1cc(C)cc(C(=O)NC(CC(N)=O)c2ccc(NCCN3CCOCC3)c([N+](=O)[O-])c2)c1 (stereo unspecified),> 42 µM (inactive)
9,Cc1cc(Br)ccc1NC(=O)c1cnc(N2CCN(c3ccccn3)CC2)c2ccccc12,> 42 µM (inactive)
10,COc1cc(C(c2c(C)[nH][nH]c2=O)c2c(C)[nH][nH]c2=O)cc(OC)c1OC,> 42 µM (inactive)
11,CC1C(=O)CC(c2ccccc2)NC1c1ccccc1 (stereo unspecified),> 42 µM (inactive)
12,Cc1nc2sc(C(c3ccco3)N3CCOCC3)c(O)n2n1 (stereo unspecified),> 42 µM (inactive)
13,O=C(/C=C/NNC(=O)c1ccc(Br)cc1)c1ccccc1,> 42 µM (inactive)
14,COc1ccc2oc(=O)c(C(=O)NCc3ccco3)cc2c1,> 42 µM (inactive)
15,CCOc1ccc(C(=O)c2cccs2)cc1,> 42 µM (inactive)
16,COC(=O)C12CCC3(SCCS3)C(C(=O)OC)(CCC13SCCS3)C2,7.24 µM
17,CNc1csc(C)c(C)c1=O,> 42 µM (inactive)
18,CC(C)C(OC(=O)CN1C(=O)COc2ccccc21)C(=O)NC1CCCC1 (stereo unspecified),> 42 µM (inactive)
19,CN1/C(=C\C(=O)COC(=O)c2ccc([N+](=O)[O-])o2)C(C)(C)c2ccccc21,13.6 µM
20,CCOC(=O)c1sc(NC(=O)CSc2n[nH]c(-c3ccccc3)n2)c(C#N)c1C,20.6 µM
21,CC(=O)Nc1ccc(S(=O)(=O)N(C)CC(=O)Nc2ccc(Br)cc2F)cc1,> 42 µM (inactive)
22,COc1ccc(/C=N\Nc2ccc([N+](=O)[O-])cc2)c(C(=O)O)c1OC,> 42 µM (inactive)
23,Cc1nc2sc(C(c3ccccc3)N3CCC(O)CC3)c(O)n2n1 (stereo unspecified),> 42 µM (inactive)
